In data set [1] the test system is MIA PaCa-2. Kind of data set: Antiproliferative activity against human MIAPaCa2 cells after 48 hrs. The format is functional, cell-based. To be noted: MIA PaCa-2, 48 h.
Data set [2] has as its system MIA PaCa-2. As to the kind of experiment: Antiproliferative activity against human MIAPaCa2 cells after 72 hrs. The class given is functional, cell-based. Particulars: MIA PaCa-2, 72 h.
Data set [3] in a line: Antiproliferative activity against human COLO320 cells after 48 hrs. The format is functional, cell-based. Particulars: COLO 320, 48 h.
Data set [4] can be described thus: Antiproliferative activity against human COLO320 cells after 72 hrs. The format is functional, cell-based. Particulars: COLO 320, 72 h.
In a further data set the test system is HEK293. As to the kind of experiment: Antiproliferative activity against human HEK293 cells up to 100 uM. The format is cell-based.
Data set [5] concerns MIA PaCa-2. As to the kind of experiment: Induction of apoptosis in human MIAPaCa2 cells assessed as increase of interneucleosomal DNA fragmentation at 10 uM after 24 hrs. The class given is functional, cell-based.
Data set [6] concerns COLO 320. As to the kind of experiment: Induction of apoptosis in human COLO320 cells assessed as increase of interneucleosomal DNA fragmentation at 10 uM after 24 hrs. The class given is functional, cell-based.
In data set [7] the test system is MIA PaCa-2. Kind of data set: Antiproliferative activity against human MIAPaCa2 cells after 48 to 72 hrs. The format is functional, cell-based.
The subject of data set [8] is COLO 320. Kind of data set: Antiproliferative activity against human COLO320 cells after 48 to 72 hrs. The class given is functional, cell-based.
Data set [9] concerns MIA PaCa-2. As to the kind of experiment: Antiproliferative activity against human MIAPaCa2 cells. The class given is functional, cell-based. Particulars: TDE = time-dependent effect.
In data set [10] the test system is COLO 320. As to the kind of experiment: Antiproliferative activity against human COLO320 cells. To be noted: TDE = time-dependent effect. The format is functional, cell-based.
The subject of data set [11] is MIA PaCa-2. Kind of data set: Induction of apoptosis in human MIAPaCa2 cells assessed as increase of interneucleosomal DNA fragmentation at 5 uM after 24 hrs relative to control. The class given is functional.
Data set [12] has as its system COLO 320. Kind of data set: Induction of apoptosis in human COLO320 cells assessed as increase of interneucleosomal DNA fragmentation at 5 uM after 24 hrs relative to control. The class given is functional.

What is called IC50 is the point on the concentration scale where inhibition reaches its midpoint.

Each structure is given as a SMILES string. Active and inactive are the calls of the source. The rule behind the calls is not given here.

Regarding `C=C1C[C@H](O)[C@@H]2[C@H](OC(=O)[C@H]2C)[C@H]2CC(=O)C[C@@H]12`, the IC50 in the data set on MIA PaCa-2 [1] turned out to be 25.7 µM; in the data set with MIA PaCa-2 [2], 15.9 µM; in data set [3] it was 10 µM; in [4], 6 µM. The Activity entry in the data set on HEK293 was “Non-toxic”; in the data set on MIA PaCa-2 [7], “Dose-dependent effect”; with COLO 320 [8] it was “Dose-dependent effect”; in the data set on MIA PaCa-2 [9] it was “tde”; in the data set with COLO 320 [10] it was “tde”. Moreover, the result in the data set with MIA PaCa-2 [5] and with COLO 320 [6] was inactive.

As for `C=C(C)C(=O)O[C@H]1CC(=C)[C@@H]2C[C@H](O)C(=C)[C@@H]2[C@H]2OC(=O)C(=C)[C@@H]21` [AGUERIN B], the IC50 in the data set with MIA PaCa-2 [1] stood at 7.5 µM; in the data set with MIA PaCa-2 [2], 3.6 µM; in data set [3] it was 3.2 µM; in data set [4], 2.6 µM. Moreover, the Activity entry in the data set with HEK293 was “Non-toxic”; with MIA PaCa-2 [7] it was “Dose-dependent effect”; with COLO 320 [8] it was “Dose-dependent effect”; with MIA PaCa-2 [9] it was “tde”; in the data set with COLO 320 [10] it was “tde”. Also, the “fold change (FC)” value in the data set with MIA PaCa-2 [11] and in the data set on COLO 320 [12] was above 2 each time.

For `O=c1[nH]cc(F)c(=O)[nH]1` [FLUOROURACIL], the IC50 in the data set on MIA PaCa-2 [1] came out at 14 µM; with MIA PaCa-2 [2], 7.4 µM; in [3] it was 10 µM; in data set [4], 8.7 µM.

(Values after ChEMBL document CHEMBL1800037, “Anti-proliferative activity of aguerin B and a new rare nor-guaianolide lactone isolated from the aerial parts of Centaurea deflexa” (Eur J Med Chem, 2011).)
